# Reference: patent US9061069B2, “Use of constrained peptide mimic oligomers as vectorization agents” (CENTRE NATIONAL DE LA RECHERCHE SCIENTIFIQUE, priority 2009, dated 2015)
# Where a SMILES comes first, the peptide text is derived from it. [ ]: non-standard residue; d: D form. The star is where a group is joined. Sta = CC(C)C[C@H](N)[C@@H](O)CC(=O)O; Isovaleryl = CC(C)CC(=O)*
# Tests used:
# [1] = system: cells of the line MDA-MB-231; assay: cytotoxicity, cellular viability test MTT; assay type: cell-based, human; conditions: incubation of 5 days, 10^-5M
# From the text: The cytotoxicity of this novel class of molecules has also been determined in cells of the line MDA-MB-231 by using a cellular viability diagnostic test, MTT.
# [2] = system: cancerous cells (MDA-MB-231, MCF7, LNCaP, HCT116, SaOs2); assay: cell growth / proliferation of tumoral lines, incubation for 5 days; assay type: cell-based; conditions: inhibitor alone
# Procedure: FIG. 2 describes the cell growth (in percentage of number of cells with respect to a pepstatin control) of cancerous cells (mammary […] and MCF7, prostatics LNCaP, colic HCT116, osteoblastics SaOs2) as a function of their incubation for 5 days with 1 oligomer of AMPA (4497), pepstatin alone (Peps), [Val^1]-Pepstatin bonded to arginine (4567) and two conjugate inhibitors of cathepsin D-oligomer of AMPA bonded to an arginine residue (4564 and 4463). The negative percentages correspond to a reduction in the number of cells with respect to the initial cellular seeding.
# FIG. 3 describes the cell growth (in percentage of number of cells with respect to a pepstatin control) of cancerous cells (MDA-MB-231, MCF7, LNCaP, HCT116, SaOs2) as a function of their incubation for 5 days with 1 oligomer of AMPA (4497), [Val^1]-Pepstatin bonded to conjugated arginine 5 (4567) and 4 [Val^1]-Pepstatin-oligomer of AMPA bonded to a lysine or arginine residue (4461, 4562, 4463, 4564). The negative percentages correspond to a reduction in the number of cells with respect to the initial cellular seeding.
# The application of these vectors within the context of a tumoral pathology is now explored. […]
Structure (SMILES),effect on cellular viability (MTT) [1],effect on the proliferation of tumoral cells [2]
NC(=O)CN1C(=O)[C@H](NC(=O)CN2C(=O)[C@H](NC(=O)COCCOCCNC(=S)Nc3ccc4c(c3)C(=O)OC43c4ccc(O)cc4Oc4cc(O)ccc43)CSc3ccccc32)CSc2ccccc21 [JMV4131],significant effect on cellular viability,
CC(C)CC(=O)N[C@H](C(=O)N[C@H](C(=O)N[C@@H](CC(C)C)[C@@H](O)CC(=O)N[C@@H](C)C(=O)N[C@@H](CC(C)C)[C@@H](O)CC(=O)O)C(C)C)C(C)C [pepstatin A] (Isovaleryl-VV[Sta]A[Sta]-OH),,inactive
